# Source: publication PMC8041276 (ACS Chemical Neuroscience, 2021)
# Experiments:
# CYP3A4 = target: T1, CYP3A4 (Homo sapiens, UniProt P08684); assay: CYP3A4 P450-Glo luminescent inhibition assay; assay type: in vitro ADME; settings: 0.01–25 μM
# T1 construct: purchased Promega (Madison, WI, USA)
# From the text: The luminescent CYP3A4 P450-Glo and CYP2D6 P450-Glo assays and protocols were provided by Promega (Madison, WI, USA). The P450-Glo systems based on the conversion proluciferins, derivatives of beetle luciferin [(4S)-4,5-dihydro-2-(6′-hydroxy-2′-benzothiazolyl)-4-thiazolecarboxylic acid] into D-luciferin were catalyzed by respective CYP isoform. D-Luciferin is formed and detected in a second reaction with the luciferin detection reagent (LDR). The amount of light produced in the second reaction is proportional to CYP activity.
# The stock solutions (10 mM) of the references ketoconazole (KE), quinidine (QD), and examined compounds were performed in DMSO. The 4× concentrated dilutions were prepared before the assays. […]
# The CYPs, proluciferin, and examined compounds (25 μL/well) were preincubated first for 5 min, and next the NADPH regeneration system was added (25 μL) to start the reaction. […] The control reactions for measuring the 100% of CYPs activity and minus-CYP negative control reactions for measure background luminescence were also prepared. […] Finally, LDR was added (50 μL/well), and after 20 min of incubation in room temperature the luminescence signal was measured with a microplate reader (EnSpire, PerkinElmer) in luminescence mode. […] The IC50 values and were calculated using GraphPad Prism 5 software.
# [1] = test system: scopolamine-induced cognitive impairment; assay: Novel object recognition (NOR) test under scopolamine-induced memory decline; assay type: in vivo, male Sprague-Dawley rats; settings: rats, scopolamine 1.25 mg/kg ip
# Method: The experiments were conducted in accordance with the NIH Guide for the Care and Use of Laboratory Animals and were approved by the II Local Ethics Committee for Animal Experiments, Maj Institute of Pharmacology. Male […] Sprague-Dawley rats (Charles River, Germany) weighing ∼250 g at the arrival were housed in the standard laboratory cages, under standard colony A/C controlled conditions: room temperature 21 ± 2 °C, humidity (40–50%), 12 h light/dark cycle (lights on, 06:00) with ad libitum access to food (unless stated otherwise) and water. Rats were allowed to acclimatize for at least 7 days before the start of the experimental procedure. During this week animals were handled at least 3 times. Behavioral testing was carried out during the light phase of the light/dark cycle. […]
# The procedure consisted of habituation to the arena (without any objects) for 5 min, 24 h before the test, and test session comprised two trials separated by an inter trial interval (ITI). […] Exploration time of the objects and the distance traveled were measured using the Any-maze video tracking system. On the basis of exploration time (E) of two objects during T2, discrimination index (DI) was calculated according to the formula: DI = (EB – EA)/(EA + […]).
# Data were analyzed using one-way ANOVA with treatment as between-subject factor. […]
# T1 sequence (P08684 whole entry): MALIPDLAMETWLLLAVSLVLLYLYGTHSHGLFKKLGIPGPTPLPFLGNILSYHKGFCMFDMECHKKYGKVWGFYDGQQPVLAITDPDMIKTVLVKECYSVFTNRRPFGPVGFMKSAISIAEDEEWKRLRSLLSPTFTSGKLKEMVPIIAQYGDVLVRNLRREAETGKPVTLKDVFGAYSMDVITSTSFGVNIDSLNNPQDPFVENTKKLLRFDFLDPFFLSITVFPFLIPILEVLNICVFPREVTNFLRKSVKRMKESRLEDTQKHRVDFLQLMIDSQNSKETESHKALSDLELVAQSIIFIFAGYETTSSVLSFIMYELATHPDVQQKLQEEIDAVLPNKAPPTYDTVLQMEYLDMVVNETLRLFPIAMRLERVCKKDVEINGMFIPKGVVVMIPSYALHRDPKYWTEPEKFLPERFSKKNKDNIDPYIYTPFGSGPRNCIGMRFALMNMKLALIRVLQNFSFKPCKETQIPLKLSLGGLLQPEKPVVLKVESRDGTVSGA
smiles,measurement,setting,value
"O=C(N[C@@H]1CCNC1)c1ccn(S(=O)(=O)c2cccc(Cl)c2)c1-c1ccc(F)cc1 [Compound 27, (R)-2-(4-Fluorophenyl)-1-[(3-chlorophenyl)sulfonyl]-N-(pyrrolidin-3-yl)-1H-pyrrole-3-carboxamide]",IC50,CYP3A4,69 nM
same,effect on scopolamine-induced cognitive deficits (discrimination index),[1]; 3 mg/kg p.o.,"not 3 mg/kg, prevented scopolamine-induced cognitive deficits"
same,effect on scopolamine-induced cognitive deficits (discrimination index),[1]; 6 mg/kg p.o.,prevented scopolamine-induced cognitive deficits
